The nature of one series: in vitro. The following applies: dog, MDCK-MDR1. From the text:
(§1) MDCK-MDR1 cells were monolayer cells which highly express P-gp transporter after transfection of MDCK (Madin-Darby canine kidney epithelial cell) with MDR1 gene. Due to its density and high expression of efflux protein, the monolayer has similarity compared to blood-brain barrier (BBB) structure and now can be used as one of models for evaluating the ability of passing through BBB. In the invention, MDCK-MDR1 cells were used to study the membrane permeability of the compounds according to the invention, and to primarily evaluate its ability of passing through BBB.
(§2) The frozen MDCK-MDR1 cells were quickly thawed in a 37° C. water bath. To the resuscitated cells, DMEM medium containing 10% FBS was added, and the cells were cultured in an incubator at 37° C., 5% CO2, and a relative humidity of 90%. The medium was changed every other day. After fusion of the cells growing for 1-2 days, the cells were digested with 0.25% trypsin-EDTA (0.2%) mixed digestion solution at 37° C., and were sub-cultured at a certain ratio. The cells for use in experiment were those passaged for 40-60 generations.
(§3) When the cell fusion degree reached 80%, the cells were digested and then suspended in complete medium, and seeded to Millicell plate at 1×10^6 cells·mL^−1. The medium was changed every other day, and 1 week later, the medium was changed every day. After culturing for 5 days, the resistance value reached a constant value (>200 Ω·cm^2), and the cells could be used in the transport experiment.
(§4) After washing with 37° C. HBSS twice, the cells were incubated in a 37° C. culture incubator, wherein Rho-123 was added to the upper wells, and HBSS was added to the bottom wells. The incubation was carried out in a constant temperature shaker, and the solutions from the bottom wells were collected at each time point (0 min, 30 min, 90 min, 120 min), and stored at −20° C. for further use. The amount of Rho-123 permeated to the bottom well was determined by fluorospectrophotometer, wherein the emission wavelength was […], and the excitation wavelength was 530 nm.
(§5) The permeability from cavity-surface to basal surface: drug-containing HBSS 0.35 mL was add to Apical (AP), and blank HBSS 1.2 mL was added to Basolateral (BL). The Millicell was placed at 37° C. in a shaker under shaking at 50 r·min^−1, 50 μL sample was collected from the bottom well at 0, 30, 90, 120 min, respectively, and the same volume of blank HBSS was supplemented. 3 wells were set for each concentration, and to the sample, an internal standard solution (50 μL) and ethyl acetate (350 μL) were added precisely. The mixture was mixed homogeneously under shaking, and centrifuged at 12000 rmp for 5 min. The supernatant (300 μL) was volatilized to dryness, and re-dissolved in 50 μL acetonitrile. The 10 μL resultant solution was used for determination.
(§6) The permeability from basal surface to cavity surface: the drug is added to Basolateral (BL), and blank HBSS was added to Apical (AP), and the other steps were the same as those of the experiment for determining the permeability from cavity-surface to basal surface.
(§7) The apparent permeability coefficient (Papp) of a drug reflects the ability of the drug to pass through cell monolayer and the drug absorption rate and extent. It can be calculated in accordance with the following equation: […]
(§8) wherein, Q represents the amount of drug permeated in the t period, A represents cell surface area, and represents the area (0.6 cm^2) of supporting film in this model, and C0 represents an initial concentration. The unit of Papp is expressed as cm·s^−1.
(§9) By measurement using LC/MS, the concentration of each sample was quantitated using its standard curve (50 nM-10000 nM).

Series [1] has as its system chick embryo dorsal root ganglion. Nature of the series: in vitro serum-free culture model of chick embryonic dorsal root ganglion: neurite growth score with NGF. Type of series: cell-based. The following applies: for Average score (growth of neurites of chick embryo dorsal root ganglion): 48 h, score 0-3, average of five ganglions, control 0.33. How it is done: The neurotrophic activity of the compounds according to the invention can be embodied in multiple in vitro biological models, such as in vitro serum-free culture model of chick embryonic dorsal root ganglion.
Experimental method: in a sterile environment, chick embryo, which had been incubated for 8 d, had the spinal and bilateral ganglion exposed under anatomical lens. Dorsal root ganglions were picked one by one using sharp forceps, and seeded in culture bottles spread with rat tail collagen, at a density of 5-6 ganglions per bottle, and two bottles for each dose. After attachment culture in a 37° C., 5% CO2 incubator for 1 h, serum-free medium DMEM containing nerve growth factor (NGF) (0.15 ng/mL), and the compound according to the invention were added. In the control group, only the medium and the same dose of NGF were added. After culture in the incubator for 48 h, the growth of neurite around dorsal root ganglion was observed under inverted phase contrast microscope, which was scored depending on the length and density of neurite.
Evaluation criteria: 0: no neurite; 1: rare long neurite; 2: relatively long or dense neurite; 3: long and dense neurite.

The test system of series [2] is BCAO-LBP mice (incomplete global cerebral ischemia). Nature of the series: mouse BCAO-LBP model of incomplete global cerebral ischemia: cerebral MDA content and neurological function score. Type of series: in vivo, Kunmin mice. Conditions: for Neurologic deficit score / MDA content: 30 mg/kg i.g. once/d for 3 d, x ± SEM; for Neurologic deficit score: behaviour within 6 h after ligation, model group 3.92, sham 0.00; for MDA content: whole cerebrum, model group 40.94, sham 33.15. From the text: In the Example, Kunmin mice were used as experimental subjects, intragastric (i.g.) administration was used, mouse BCAO-LBP (bilateral carotid artery occlusion with low blood pressure) model was used, and by determining neurological function score and the cerebral malondialdehyde (MDA) content in mice, the compounds were investigated for their protective effects on incomplete global cerebral ischemia in mice when administered prophylactically.
2.1.2 Preparation of a drug for intragastric administration: the compound was prepared to a 1.5 mg/ml solution using 0.7% CMC-Na solution.
28 mice, which had adapted to the laboratory environment for 1 week, were evenly grouped depending on body weight. The mice were intragastrically administered with 0.7% CMC-Na or one of the compounds, once/d, for 3 d. The groups were as followed:
Administration group: 12 mice, intragastrically administered at a dose of 0.2 ml/10 g, i.e., the dose of the compound was 30 mg/kg.
2.3.1 Mouse bilateral carotid artery ligation: 1 h after the last administration, the mice were subjected to orbital bloodletting to reduce blood pressure (which was about 30% of the total blood volume of the mice), and then fixed in supine position on the operating table, and cut in the middle of neck. Carotid artery was subjected to blunt dissection, and 2 lines were used in ligation for each side. The time counting started after the ligation with the third line, the carotid artery was cut off between the two lines, and the incision was sewn up. In the Sham-operated group, the carotid artery was only separated without ligation. After the operation, the mice were unfixed quickly, and the mice were observed and recorded for the behaviors within 6 h (scoring depending on the following table using blind method) and the death time. The brains were taken quickly after the mice died, the cerebellums were removed, and the MDA content in the whole cerebrum was determined by thiobarbituric acid (TBA).
The cerebra of mice were taken and weighed, and were prepared into 15% brain homogenate using N.S. 1.2 ml brain homogenate was placed in a 37° C. water bath for 1 h (shaking once every 10 min) and then taken out. 20% trichloroacetic acid 0.6 ml was added, and the mixture was mixed well, and was on standing for 10 min. After centrifugation at 2000 rpm for 10 min, to 1.2 ml supernatant, 0.67% TBA 0.6 ml was added. The mixture was placed in a boiling water bath for 10 min, and was taken out for cooling, and the OD value at a wavelength of 532 nm was determined.
The experimental data was expressed as x±SEM; SPSS 13.0 statistic software was used. Homogeneity or heterogeneity of variance was determined by one-factor analysis of variance. In the case of homogeneity of variance, LSD test was used; in the case of heterogeneity of variance, Dunnett's T3 test was used. Significant difference among different groups was compared, and P<0.05 indicated statistical significance.

The next series has as its system MDCK-MDR1 cells. The experiment in a line: in vitro. The following applies: MDCK-MDR1.
Excerpt: as §1, §2, §3, §4, §5, §6, §7, §8, §9

Where [3] appears, read: compound 100 pM + NGF 0.15 ng/mL.

Data on eight compounds can be found in patent US10335417B2, “Thiazideamide derivative and use thereof” (Institute of Pharmacology and Toxicology Academy of …, priority 2015, dated 2019).

For orientation: Papp means a coefficient for how fast a substance crosses the barrier. A lower Papp goes with poor permeation.

Regarding `CCOC(=O)[C@@H](NC(=O)[C@@H]1CSCCN1S(=O)(=O)c1ccc(C)cc1)C(C)C` [Compound 13, (S)-ethyl-3-methyl-2((R)-(4-methylphenyl)sulfonyltetrahydro-1,4-thiazin-3-aminoformyl)butyrate], the Papp at 120 min in “in vitro” was 18.9 ×10⁻⁶ cm/s. Besides, the “Average score (growth of neurites of chick embryo dorsal root ganglion)” value (“Average score” for short) in series [1] (compound 1 pM + NGF 0.15 ng/mL) came out at 1.96. Further, the “Average score” value in series [1] (setting [3]) was 2.88. In series [2], this compound had a Neurologic deficit score of 2.47 ± 0.40 and an MDA content of 33.90 ± 1.45 nmol/g. The “neurologic deficit score decreased compared to the group administered with Compound 5” value in series [2] (30 mg/kg i.g., BCAO-LBP mice) was around 32%.

Consider `Cc1ccc(S(=O)(=O)N2CCSC[C@H]2C(=O)N[C@H](CC(C)C)C(=O)OC(C)C)cc1` [Compound 6, (3R)-4-[(4-methylbenzenesulfonyl)]-1,4-thiazin-3-carbonyl-D-leucine isopropyl ester, reference compound], for which the “Papp (apparent permeability coefficient)” value in the series on MDCK-MDR1 cells is 39.5 ×10⁻⁶ cm/s. In series [1] (compound 1 pM + NGF 0.15 ng/mL), the “Average score” value is reported as 1.68. Moreover, the “Average score” value in series [1] (setting [3]) was determined as 2.55. In series [2], this compound came in with a Neurologic deficit score of 2.08 ± 0.40 and an MDA content of 32.87 ± 0.95 nmol/g.

On to `Cc1ccc(S(=O)(=O)N2CCSC[C@H]2C(=O)N[C@H](C(=O)OCc2ccccc2)C(C)C)cc1` [Compound 11, (S)-benzyl-3-methyl-2((R)-(4-methylphenyl)sulfonyltetrahydro-1,4-thiazin-3-aminoformyl)butyrate], for which, in the series “in vitro”, the Papp at 120 min amounted to 15.6 ×10⁻⁶ cm/s. In series [1] (compound 1 pM + NGF 0.15 ng/mL), the “Average score” value is given as 1.86. Further, the “Average score” value in series [1] (setting [3]) was 2.65. In series [2], the Neurologic deficit score was determined as 3.66 ± 0.31 and the MDA content was found to be 32.57 ± 0.75 nmol/g.

As for `Cc1ccc(S(=O)(=O)N2CCSC[C@H]2C(=O)N[C@@H](Cc2ccccc2)C(=O)OCc2ccccc2)cc1` [Compound 18, (S)-benzyl-3-phenyl-2((R)-(4-methylphenyl)sulfonyltetrahydro-1,4-thiazin-3-aminoformyl)propionate], the Papp at 120 min in “in vitro” worked out at 28.5 ×10⁻⁶ cm/s. Further, the “Average score” value in series [1] (compound 1 pM + NGF 0.15 ng/mL) is on record as 1.66. In addition, the “Average score” value in series [1] (setting [3]) turned out to be 2.68. In series [2], this compound returned a Neurologic deficit score of 2.65 ± 0.31 and an MDA content of 32.66 ± 0.93 nmol/g. Further, the “neurologic deficit score decreased compared to the group administered with Compound 5” value in series [2] (30 mg/kg i.g., BCAO-LBP mice) was around 27%.

Take `CCOC(=O)[C@H](CCc1ccccc1)NC(=O)[C@@H]1CSCCN1S(=O)(=O)c1ccc(C)cc1` [Compound 22, (S)-ethyl-4-phenyl-2((R)-(4-methylphenyl)sulfonyltetrahydro-1,4-thiazin-3-aminoformyl)butyrate]: in “in vitro”, the apparent permeability (Papp) at 120 min is 40.6 ×10⁻⁶ cm/s. In addition, the “Average score” value in series [1] (compound 1 pM + NGF 0.15 ng/mL) is 1.88. In addition, the “Average score” value in series [1] (setting [3]) worked out at 2.78. In series [2], this compound displayed a Neurologic deficit score of 3.08 ± 0.40 and an MDA content of 33.27 ± 1.61 nmol/g. Besides, the “neurologic deficit score decreased compared to the group administered with Compound 5” value in series [2] (30 mg/kg i.g., BCAO-LBP mice) is reported as “about 15%”.

With `CCC(C)[C@H](NC(=O)[C@@H]1CSCCN1S(=O)(=O)c1ccc(C)cc1)C(=O)OC(C)(C)C` (stereo partly drawn) [Compound 9, (2S,3R)-tert-butyl-3-methyl-2((R)-(4-methylphenyl)sulfonyltetrahydro-1,4-thiazin-3-aminoformyl)valerate], the Papp at 120 min in “in vitro” is 12.4 ×10⁻⁶ cm/s. Also, the “Average score” value in series [1] (compound 1 pM + NGF 0.15 ng/mL) is recorded as 1.76. For the same compound, the “Average score” value in series [1] (setting [3]) was 2.56. Further, in series [2], the Neurologic deficit score worked out at 2.37 ± 0.31 and the MDA content stood at 33.29 ± 1.81 nmol/g. Also, the “neurologic deficit score decreased compared to the group administered with Compound 5” value in series [2] (30 mg/kg i.g., BCAO-LBP mice) is “about 35%”.

Take `Cc1ccc(S(=O)(=O)N2CCSC[C@H]2C(=O)N[C@H](Cc2ccccc2)C(=O)OC(C)(C)C)cc1` [Compound 20, (R)-tert-butyl-3-phenyl-2((R)-(4-methylphenyl)sulfonyltetrahydro-1,4-thiazin-3-aminoformyl)propionate]: the Papp at 120 min in the series “in vitro” was determined as 18.8 ×10⁻⁶ cm/s. Also, the “Average score” value is 2.10 in series [1] (compound 1 pM + NGF 0.15 ng/mL) and 3.32 in series [1] (setting [3]). The “neurotrophic activity increased compared to Compound 6” value in series [1] (dose 1 pM) came to 25%; in series [1] (dose 100 pM) it was 30%. This compound yielded a Neurologic deficit score in series [2] of 3.76 ± 0.31. Further, the MDA content in series [2] is 34.90 ± 1.65 nmol/g.

For the compound `Cc1ccc(S(=O)(=O)N2CCSC[C@H]2C(=O)N[C@@H](C(=O)OC(C)(C)C)C(C)C)cc1` [Compound 15, (R)-tert-butyl-3-methyl-2((R)-(4-methylphenyl)sulfonyltetrahydro-1,4-thiazin-3-aminoformyl)butyrate], the Papp at 120 min in “in vitro” is 40.8 ×10⁻⁶ cm/s. Besides, the “Average score” value in series [1] (compound 1 pM + NGF 0.15 ng/mL) is given as 1.78. For the same compound, the “Average score” value in series [1] (setting [3]) is listed as 2.68. Further, in series [2], the Neurologic deficit score is on record as 1.91 ± 0.28 and the MDA content is given as 33.77 ± 1.61 nmol/g. In addition, the “neurologic deficit score decreased compared to the group administered with Compound 6” value in series [2] (30 mg/kg i.g., BCAO-LBP mice) is given as around 8%.
